Laboratory results as given in PubChem BioAssay AID248 (DTP/NCI, 2004).
“And” between values parts separate entries of the source, which are not always exact repeats. Identical values can stand only once. Inconclusive results and toxic doses are left out. No stated cut-off is given here; in the data, active means T/C of 150% or more; inactive means T/C below 125%.

System: L1210 leukemia ip in BDF1 mice, survival T/C
Test: NCI In Vivo Anticancer Drug Screen. Data for tumor model L1210 Leukemia (intraperitoneal) in B6D2F1 (BDF1) mice
Settings: endpoint: mean survival time, higher = longer survival
In short: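 In this screen, tumor-bearing mice given compound are compared to those given vehicle, and their survival values are reported as a treated-to-control quotient.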

Measured: T/C

C/[N+]([O-])=N\Nc1c(Cl)cc(Cl)cc1Cl
inactive: dose: 50.0 mg/kg/injection, schedule: Q01DX009 (ip), vehicle: saline with Tween-80 94 % of control | dose: 100.0 mg/kg/injection, schedule: Q01DX009 (ip), vehicle: saline with Tween-80 105 % of control | dose: 200.0 mg/kg/injection, schedule: Q01DX009 (ip), vehicle: saline with Tween-80 102 % of control

C[N+](C)(CC(=O)Nc1ccc(Oc2ccc(Cl)cc2)cc1)Cc1ccccc1
inactive: dose: 12.5 mg/kg/injection, schedule: Q01DX001 (ip), vehicle: Klucel (hydroxypropylcellulose) (HPC) 104 % of control | dose: 12.5 mg/kg/injection, schedule: Q01DX009 (ip), vehicle: Klucel (hydroxypropylcellulose) (HPC) 91 % of control | dose: 25.0 mg/kg/injection, schedule: Q01DX001 (ip), vehicle: Klucel (hydroxypropylcellulose) (HPC) 101 % of control | dose: 25.0 mg/kg/injection, schedule: Q01DX009 (ip), vehicle: Klucel (hydroxypropylcellulose) (HPC) 88 % of control | dose: 50.0 mg/kg/injection, schedule: Q01DX001 (ip), vehicle: Klucel (hydroxypropylcellulose) (HPC) 93 % of control

Nc1nc(N)c2nc(COc3ccc(C(=O)NC(CCC(=O)O)C(=O)O)cc3)cnc2n1 (configuration not stated)
inactive: dose: 0.5 mg/kg/injection, schedule: Q01DX009 (ip), vehicle: sodium bicarbonate 122 % of control | dose: 0.8 mg/kg/injection, schedule: Q01DX009 (ip), vehicle: sodium bicarbonate 122 % of control | dose: 2.5 mg/kg/injection, schedule: Q01DX009 (ip), vehicle: sodium bicarbonate 122 % of control | dose: 5.0 mg/kg/injection, schedule: Q01DX009 (ip), vehicle: sodium bicarbonate 100 % of control and 90 % of control

CCOC(=O)c1cc(N)c[nH]1
inactive: dose: 50.0 mg/kg/injection, schedule: Q01DX009 (ip), vehicle: saline 109 % of control | dose: 100.0 mg/kg/injection, schedule: Q01DX009 (ip), vehicle: saline 96 % of control | dose: 100.0 mg/kg/injection, schedule: Q04DX003 (ip), vehicle: saline 89 % of control | dose: 200.0 mg/kg/injection, schedule: Q01DX009 (ip), vehicle: saline 96 % of control | dose: 200.0 mg/kg/injection, schedule: Q04DX003 (ip), vehicle: saline 94 % of control

O/N=C1\CCn2cccc21
inactive: dose: 100.0 mg/kg/injection, schedule: Q04DX003 (ip), vehicle: saline with Tween-80 91 % of control | dose: 200.0 mg/kg/injection, schedule: Q04DX003 (ip), vehicle: saline with Tween-80 91 % of control | dose: 400.0 mg/kg/injection, schedule: Q04DX003 (ip), vehicle: saline with Tween-80 87 % of control

OCCOC1CCCC=C1Cl (configuration not stated)
inactive: dose: 100.0 mg/kg/injection, schedule: Q01DX001 (ip), vehicle: acetone 95 % of control | dose: 200.0 mg/kg/injection, schedule: Q01DX001 (ip), vehicle: acetone 98 % of control | dose: 400.0 mg/kg/injection, schedule: Q01DX001 (ip), vehicle: acetone 91 % of control

CCCCCCCCCCCCCc1nc(N)nc(N2CCOCC2)n1
inactive: dose: 100.0 mg/kg/injection, schedule: Q04DX002 (ip), vehicle: Klucel (hydroxypropylcellulose) (HPC) 92 % of control | dose: 200.0 mg/kg/injection, schedule: Q04DX002 (ip), vehicle: Klucel (hydroxypropylcellulose) (HPC) 95 % of control | dose: 400.0 mg/kg/injection, schedule: Q04DX002 (ip), vehicle: Klucel (hydroxypropylcellulose) (HPC) 92 % of control

O=c1c2ccccc2cc2ccccn12
inactive: dose: 100.0 mg/kg/injection, schedule: Q01DX009 (ip), vehicle: Klucel (hydroxypropylcellulose) (HPC) 100 % of control | dose: 100.0 mg/kg/injection, schedule: Q04DX003 (ip), vehicle: Klucel (hydroxypropylcellulose) (HPC) 95 % of control | dose: 200.0 mg/kg/injection, schedule: Q01DX009 (ip), vehicle: Klucel (hydroxypropylcellulose) (HPC) 94 % of control | dose: 200.0 mg/kg/injection, schedule: Q04DX003 (ip), vehicle: Klucel (hydroxypropylcellulose) (HPC) 97 % of control | dose: 400.0 mg/kg/injection, schedule: Q01DX009 (ip), vehicle: Klucel (hydroxypropylcellulose) (HPC) 92 % of control | dose: 400.0 mg/kg/injection, schedule: Q04DX003 (ip), vehicle: Klucel (hydroxypropylcellulose) (HPC) 97 % of control
